Inhibition data for one compound are collected here from article PMC6934184, “Selective DNA-PKcs inhibition extends the therapeutic index of localized radiotherapy and chemotherapy” (The Journal of Clinical Investigation, 2019).

By inhibition is commonly meant the drop in the measured response relative to a control, in per cent. Low readings indicate a response near the control, high ones a response far below the control.

In the assay the target is T1, PLK1 (Homo sapiens, UniProt P53350).
T1 construct: purchased Thermo Fisher Scientific (Life Technologies) SelectScreen
The experiment in a line: SelectScreen Z'LYTE. In kind it is biochemical. The gist of the method:
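SelectScreen broad panel; activity (Z'LYTE, Adapta) plus binding formats. ATP: Km app for CSF1R Z'LYTE; 10 for CAMK1 Adapta. Readout = % per kinase.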

T1 sequence (P53350 whole entry): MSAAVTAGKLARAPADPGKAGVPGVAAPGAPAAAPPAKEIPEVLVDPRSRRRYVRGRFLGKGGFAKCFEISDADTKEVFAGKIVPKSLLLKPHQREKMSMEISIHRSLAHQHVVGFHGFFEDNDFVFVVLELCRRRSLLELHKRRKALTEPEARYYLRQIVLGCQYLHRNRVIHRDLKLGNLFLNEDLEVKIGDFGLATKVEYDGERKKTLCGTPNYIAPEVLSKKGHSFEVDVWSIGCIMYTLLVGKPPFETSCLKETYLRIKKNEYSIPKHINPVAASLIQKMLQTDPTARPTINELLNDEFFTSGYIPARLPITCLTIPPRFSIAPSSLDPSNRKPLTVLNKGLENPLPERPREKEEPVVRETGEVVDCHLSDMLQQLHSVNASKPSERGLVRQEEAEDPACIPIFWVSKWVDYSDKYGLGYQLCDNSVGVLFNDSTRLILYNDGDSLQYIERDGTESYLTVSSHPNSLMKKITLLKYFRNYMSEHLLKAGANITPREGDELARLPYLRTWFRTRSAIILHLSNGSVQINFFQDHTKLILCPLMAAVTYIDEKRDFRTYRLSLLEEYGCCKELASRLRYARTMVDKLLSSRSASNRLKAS

As for `CN(C(=O)CN1CCOCC1)c1ccc2sc3c(-c4cccc5c(=O)cc(N6CC7CCC(C6)O7)oc45)cccc3c2c1` [NU5455], the inhibition at 1 µM is 9.2%.
